Converted amounts (≈) assume the structure as drawn.

Assay [1] in a line: Antioxidant activity assessed as hydrogen peroxide scavenging activity. The format is functional.
The nature of assay [2]: Antioxidant activity assessed as DPPH radical scavenging activity. The format is functional.

As to `C[C@@H]1O[C@@H](O[C@@H]2[C@@H](O)[C@H](OCCc3ccc(O)c(O)c3)O[C@H](COC(=O)/C=C/c3ccc(O)c(O)c3)[C@H]2O)[C@H](O)[C@H](O)[C@H]1O` [ISOACTEOSIDE], the IC50 in assay [1] amounted to 3 µg/mL (≈ 4.8 µM); in assay [2] it was 0.16 µg/mL (≈ 0.256 µM).

Take `O=C1O[C@H]([C@@H](O)CO)C(O)=C1O` [ASCORBIC ACID]: the IC50 in assay [1] worked out at 4.1 µg/mL (≈ 23.3 µM); in assay [2], 0.05 µg/mL (≈ 0.284 µM).

Turning to `C[C@@H]1O[C@@H](O[C@@H]2[C@@H](O)[C@H](OCCc3ccc(O)c(O)c3)O[C@H](CO)[C@H]2OC(=O)/C=C/c2ccc(O)c(O)c2)[C@H](O)[C@H](O)[C@H]1O` [ACETOSIDE], the figures for the half-maximal inhibitory concentration (IC50) in assay [1] and in assay [2] were 2.6 µg/mL (≈ 4.16 µM) and 0.09 µg/mL (≈ 0.144 µM), respectively.

Source of the values: ChEMBL document CHEMBL5131430, “Free radical scavenging activities of verbascoside and isoverbascoside from the leaves of Odontonema strictum (Acanthaceae)” (Bioorg Med Chem Lett, 2022).
